# Measured values: ChEMBL document CHEMBL1131785, “Design and synthesis of amidino-tyrosine derivatives as non-peptide fibrinogen receptor antagonists” (Bioorg Med Chem Lett, 1999)
# pIC50: −log10 of the molar value.
# Species: Homo sapiens
# Assay: Inhibitory activity against adenosine diphosphate (ADP)-induced platelet aggregation
# Assay type: functional, organism-based
row,Compound,pIC50
1,N=C(N)c1ccc(OCCOc2ccc(C[C@H](NC(=O)c3ccccc3)C(=O)O)cc2)cc1,6.13
2,N=C(N)c1ccc(OCCCOc2ccc(C[C@H](NC(=O)c3ccccc3)C(=O)O)cc2)cc1,< 6.00
3,Cc1ccc(C(=O)N[C@@H](Cc2ccc(OCC(=O)Nc3ccc(C(=N)N)cc3)cc2)C(=O)O)cc1,6.60
4,N=C(N)c1ccc(OCCOc2ccc(C[C@H](NC(=O)c3ccco3)C(=O)O)cc2)cc1,6.15
5,N=C(N)c1ccc(NC(=O)COc2ccc(C[C@H](NC(=O)c3ccccc3)C(=O)O)cc2)cc1,6.57
6,Cc1ccccc1OCC(=O)N[C@@H](Cc1ccc(OCC(=O)Nc2ccc(C(=N)N)cc2)cc1)C(=O)O,6.21
7,N=C(N)c1ccc(NC(=O)COc2ccc(C[C@H](NC(=O)c3ccc4ccccc4c3)C(=O)O)cc2)cc1,6.29
8,N=C(N)c1ccc(OCCCCOc2ccc(C[C@H](NC(=O)c3ccccc3)C(=O)O)cc2)cc1,< 6.00
